Earlier results, collected in article PMC9337769 (Science Advances, 2022).

Legend:
PKA-C [1] = conditions: substrate binding cooperativity of ligand-bound PKA-C
PKA-C [2] = conditions: inhibition of PKA-C; literature value

SMILES	K-type cooperativity (in words) (PKA-C [1])	Ki (PKA-C [2])
O=S(=O)(NCCNCC=Cc1ccc(Br)cc1)c1cccc2cnccc12 [H89, N-[2-(p-bromocinnamylamino)ethyl]-5-isoquinoline sulfonamide]	negative K-type cooperativity	
Nc1ncnc2c1ncn2[C@@H]1O[C@H](COP(=O)(O)OP(=O)(O)CP(=O)(O)O)[C@@H](O)[C@H]1O [adenosine 5′-(β,γ-methylene) triphosphate]	lacks K-type cooperativity	
O=C(N[C@@H]1CNCCC[C@H]1OC(=O)c1cc(O)c(C(=O)c2c(O)cccc2C(=O)O)c(O)c1)c1ccc(O)cc1 [balanol]		~4 nM
